Experimental data reported in patent publication US11033535B2, “Oxadiazoles and thiadiazoles as TGF-β inhibitors” (Southern Research Institute, priority 2017, dated 2021).

Assays:
[1] = test system: BLM induced lung fibrosis; test: BLM induced unilateral lung fibrosis model; format: in vivo, SD rats; design: left lung bronchial and arteriole damages (score), In the fibrosis core (n = 6) / left lung bronchial and arteriole damages (score), In the border of fibrosis (n = 6): scale not given here; details: for body weight, Changes in the ratio (%) / body weight: 10 mg/kg/d ip (n = 6); for body weight: in g (unit assumed)
Experimental: Species and quality level: SD rats, SPF grade; Gender and number: male, 12; Purchasing body weight range: 260-280 g; Company Certificate No.: SCXX (zhe) 2018-0001, Zhejiang Vital River Laboratory Animal Technology Co., Ltd.
Model Establishment: This study was carried out in strict accordance with the SOP institutional guidelines for the care and use of laboratory animals. Rats were anesthetized by intraperitoneal injection of pentobarbital sodium at dose of 50 mg/kg. Then rat neck skin was disinfected and opened in layers. The trachea was exposed carefully. Bleomycin (BLM) was directly injected into left main bronchus at a dose of 3 mg/kg body weight in volume of 1.0 ml/kg via a cannula. After closing the trachea and skin in layers the animal was moved on an electric heat pad at 37° C. to wait waking up from anesthesia before returning to holding cages with free access to water and diet.
Rats were assigned into two groups: Model (Group-1, n=6), CPD-X (Group-2, 10 mg/kg/d, n=6) (Table 13).
a Test article, CPD-X was designed as an intraperitoneal injection once a day starting from day-8 of modeling for 14 days (Table 13). The saline as a vehicle for model group via a ip injection once a day for 14 days.
One day after the last dosing all animals were euthanized according to the standard SOP at KCl. After confirming the animal death the left lung BALF was collected according the standard SOP at KCl. The BALF was frozen in liquid nitrogen and stored at −80° C. The left lungs then were perfused with equal volume of 10% formaldehyde solution (3 mL for each lung).
Lung pathology was processed after lung fixation. All animal hearts were collected at same time, weighted, and fixed in 10% formaldehyde solution for histology examination.
The whole left lung was dehydrated and wax embedded following KCl pathology SOP, then sectioned at […] in thickness. HE and Masson Trichrome staining were processed following KCl pathology standard staining SOPs, whole slides were then scanned by Hamamatsu NanoZoomer Digital Pathology S210 slide scanner after staining. Bronchiole and pulmonary arteriole damage and inflammatory cell infiltration in fibrosis core and fibrotic board area were scored with H&E stained slides (Table 14 and Table 15, FIG. 8), for which 5 different areas were selected in each lung slide. BLM induced left lung injury area and Ashcraft scoring for fibrosis were evaluated with Masson Trichrome stained slides (Table 16 and FIG. 9), for which 10 different areas were selected in each lung slide.
The animal hearts were dehydrated and wax embedded following KCl pathology SOP, then sectioned at […] in thickness. HE staining was processed following KCl pathology standard staining SOPs, whole slides were then scanned by Hamamatsu NanoZoomer Digital Pathology S210 slide scanner after staining. The thickness of left ventricle wall (LV), septum and right ventricle wall (RV) were measured at five different points and calculated the average thickness of LV, septum and RV.
a Statistical analysis was performed using Graphpad prism 6.0 software. Descriptive results were expressed as mean±sem or mean±sd. Statistical comparisons were performed using t-test, two-way ANOVA analysis. The p value <0.05 was considered as statistically significant.

[2] = test system: BLM induced lung fibrosis; test: BLM induced unilateral lung fibrosis model; format: in vivo, SD rats; details: 10 mg/kg/d ip (n = 6), day 77
[3] = 10 mg/kg ip QD 14 days from day-8, p < 0.05 vs. model

## CC(=O)NC(Cc1ccc(CN)cc1)c1nnc(-c2cccc(OC(F)(F)F)c2)s1 (stereo not drawn) [CPD-X]
[1]
  body weight recovery vs. model group: significant difference in body recovery
  fibrosis by Ashcraft scoring: significant reduction in fibrosis
  share of fibrosis score ≤3: about 80%
[1]; 10 mg/kg ip QD 14 days from day-8, H&E, p < 0.001 vs. model
  left lung bronchial and arteriole damages (score), In the fibrosis core (n = 6): 6.23 ± 0.67
[1]; 10 mg/kg ip QD 14 days from day-8, H&E, p < 0.01 vs. model
  left lung bronchial and arteriole damages (score), In the border of fibrosis (n = 6): 4.8 ± 0.54
[1]; 10 mg/kg ip QD 14 days from day-8, Masson Trichrome, left lung
  Lang damage area (%): 70.69 ± 10.66%
[1]; 10 mg/kg ip QD 14 days from day-8, Masson Trichrome, p < 0.01 vs. model
  Ashcraft fibrosis score: 2.55 ± 0.29
[1]; [3]
  % of fibrosis score (≤3): 90 ± 10.95 %
  % of fibrosis score (≥4): 10 ± 10.95 %
[1]; day 0
  body weight, Changes in the ratio (%): 0%
  body weight: 286.0 ± 6.1
[1]; day 2
  body weight, Changes in the ratio (%): −9.6 ± 3.6%
  body weight: 258.7 ± 13.4
[1]; day 5
  body weight, Changes in the ratio (%): −8.3 ± 6.7%
  body weight: 262.4 ± 22.6
[1]; day 7
  body weight, Changes in the ratio (%): −4.4 ± 7.6%
  body weight: 273.6 ± 24.9
[1]; day 9
  body weight, Changes in the ratio (%): −0.8 ± 7.5%
  body weight: 283.9 ± 24.5
[1]; day 11
  body weight, Changes in the ratio (%): 2.8 ± 7.0%
  body weight: 294.1 ± 23.5
[1]; day 13
  body weight, Changes in the ratio (%): 5.5 ± 6.4%
  body weight: 302.0 ± 22.0
[1]; day 15
  body weight, Changes in the ratio (%): 8.2 ± 6.1%
  body weight: 309.0 ± 20.4
[1]; day 17
  body weight, Changes in the ratio (%): 13.7 ± 6.4%
  body weight: 325.3 ± 21.2
[1]; day 19
  body weight, Changes in the ratio (%): 14.4 ± 5.9%
  body weight: 327.3 ± 20.7
[1]; day 21
  body weight, Changes in the ratio (%): 18.4 ± 5.3%
  body weight: 338.9 ± 19.4
[1]; ip from day-8 of modeling for 14 days
  therapeutic effect (summary): significant improvement in bronchial and arteriole damage and alveolar fibrosis
[1]; no statistic difference as compared to model group
  right ventricle wall thickness: slightly limited the right ventricle wall thickness
[1]; p<0.001
  bronchial and arteriole damages in fibrotic core and border of fibrosis: significant therapeutic effect on reduction of bronchial and arteriole damages
[2]
  body weight, Changes in the ratio (%): 19.4 ± 5.4%
[2]; in g (unit assumed)
  body weight: 341.6 ± 18.8
